Data set [1] deals with P. aeruginosa (ATCC 27853). Type of data set: cell-based, Pseudomonas aeruginosa. To be noted: broth microdilution, MHB-II, ~5 × 10^5 CFU, 18–20 h at 37 °C, triplicate. Here is the method:
(§1) E. coli (ATCC 25922), S. aureus (ATCC 29213), P. aeruginosa (ATCC 27853) and A. baumannii (ATCC 19606).
(§2) Antimicrobial susceptibility testing was performed by broth dilution in MHB-II media using a protocol adapted from, with minor modifications. Briefly, the compounds were prepared in standard stocks of 1 mg/mL in milli-Q H2O. Antimicrobial dilutions were prepared in two times the final concentration (128 µg/mL) of the compounds. Bacterial suspensions were prepared from overnight cultures (MHB-II) by diluting to OD600 = 0.001 (Approximately 1 × 10^6 CFU). An amount of 100 µL MHB-II was transferred to all wells in column 1–9, excluding the antibiotics well (A1–A9). An amount of 200 µL of MHB-II was transferred to all wells in column 10–12. An amount of 200 µL peptide stock was transferred to each well from A1–9. A 2-fold serial dilution from row A–G was obtained by transferring 100 µL from row A to B, and continued until row G. Resulting in final concentration range of peptides: 128, 64, 32, 16, 8, 4, and 2 (µg/mL). Finally, 100 µL bacterial suspension (1 × 10^6 CFU) were added to all wells giving a final bacterial inoculum of approximately 5 × 10^5 colony forming units (CFU). The plates were incubated for 18–20 h at 37 °C.
(Dilution methods test growth across graded concentrations, often in twofold steps.)

Another data set concerns E. coli (ATCC 25922). It is filed as cell-based, Escherichia coli. To be noted: broth microdilution, MHB-II, ~5 × 10^5 CFU, 18–20 h at 37 °C, triplicate. How it is done:
as §1, §2

The test system of data set [2] is A. baumannii (ATCC 19606). It is filed as cell-based, Acinetobacter baumannii. To be noted: broth microdilution, MHB-II, ~5 × 10^5 CFU, 18–20 h at 37 °C, triplicate. How it is done: as §1, §2
The test system of the next data set is human red blood cells. The data set can be described thus: Hemolytic activity. Type of data set: cell-based. Here is the method: The percentage of hemolysis at 150 μM was determined for all compounds as previously described. Briefly, two-fold serial dilutions (2.35 to 150 μM) of compounds in PBS were mixed with a 0.5% v/v suspension of fresh human red blood cells (RBC) in the same buffer. After 1 h incubation at 37 °C, plates were centrifuged and aliquots of the supernatants were transferred to clear ELISA plates. Absorbance at 414 nm was determined and normalised with respect to a negative (PBS, 0%) and positive (melittin, 100%) control.

Another data set concerns S. aureus (ATCC 29213). Type of data set: cell-based, Staphylococcus aureus. To be noted: broth microdilution, MHB-II, ~5 × 10^5 CFU, 18–20 h at 37 °C, triplicate. How it is done: as §1, §2
The next data set has as its system S. aureus. To be noted: cited from earlier work. The source says: (§3) In the present study, we investigated all-D-peptides. […] For example, Mana ...
The subject of the next data set is P. aeruginosa 27853. The data set is described as follows: Time-kill kinetics, P. aeruginosa. It is filed as cell-based, Pseudomonas aeruginosa. Conditions: 5 × MIC, exponentially growing cells 1 × 10^8, P. aeruginosa 27853. Here is the method: (§4) The time kill experiments were performed by treating exponentially growing cultures with D2D and compound 5. Overnight cultures grown in MHB-II media, were diluted 1:10.000 to ensure exponentially growing cultures (8–10 generations), before cultures reached 1 × 10^8 CFU approximately OD600 = 0.1. When cultures reached 1 × 10^8 they were split into blood glass tubes containing 3 mL each and then treated with the respective drugs at the concentrations as shown in Figure 3. Sampling was performed at 0, 1, 3, 5 and 24 h, by removing 250 µL culture. Samples were spun down at 4000 G for 5 min and supernatant removed, cells were washed in 1 mL 0.9% NaCl, spun down again, before being suspended in 250 µL 0.9% NaCl. Finally, 10 fold dilution series were prepared in 0.9% NaCl. From these 10 µL were spotted (in triplicate) onto LB agar. CFU were counted after 24 h incubation at 37 °C. Experiments were performed in triplicate from individual colonies. Data analysis was performed using GraphPad prism 5 and plotted as the mean of triplicated with standard deviation.

Data set [3] can be described thus: Peptide self-assembly nanostructure in solution by SAXS. As to outer radius of hollow nano-tubes: values in Å. As to shell thickness of hollow nano-tubes: values in Å. It is filed as physicochemical. To be noted: for nanostructure in solution (self-assembly, SAXS model): lab SAXS, 50 mM Tris buffer pH 7.4, 2.5–10 mg/mL, ambient temperature. How it is done: SAXS experiments of D2D and the alanine-scan (compounds 1–8) were performed using a Bruker NANOSTAR equipped with a microfocus X-ray source (IμS Cu, InCoatec, Germany) and a VÅNTEC-2000 detector. Raw scattering data was calibrated to absolute intensity scale using water as a primary standard and radially averaged in order to obtain the 1D scattered intensity profile as a function of the scattering vector q (q = 4 π sin (θ/2)/λ), where θ is the scattering angle and λ is the X-ray wavelength of 1.54 Å. The samples were dissolved in 50 mM Tris buffer, pH 7.4 (10 mg/mL, 5 mg/mL and 2.5 mg/mL) and injected manually into a temperature-controlled quartz cell located in a vacuum chamber and measured for 180 min.
The scattering of the peptide D2D was analysed using a random polymer-like chain model:(1) Ichain(q)=ϕ·Vp·Δρ^2·Pchain(q) where ϕ is the volume fraction of the peptide, Vp is the volume of the polymer, Δρ is the excess scattering length density and Pchain(q) is the form factor of the free peptide chains given by the Debye expression for Gaussian chains:(2) gPchain(q)=2·exp[−(qRg)^2]−1+(qRg)^2/(qRg)^4 where Rg is the radius gyration of the peptide chains.
The scattering for compounds 2 and 7 was analysed using a rectangular sheet like model:(3) Isheet(q)=ϕ·Vp·Δρ^2·Np·Psheet(q)
Under the assumption that the length of the peptide sheets are much greater than the lateral dimension, i.e., c >> a, b, the form factor Psheet(q) is given by (4) Psheet(q)=Fc(q)1/2π∫02πAsheet(q, α)^2dα where the amplitude is given by (5) Asheet(q,α)=sin(qb cos(α)/2)/qb cos(α)/2· sin(qa sin(α)/2) /qa sin(α)/2) and (6) Fc(q)=(2 Si(qc)/(qc)−4 sin^2(qc/2)/(qc)^2 where Si(x)=∫0xt^−1sint dt .
The expression for the absolute scattering intensity, from this structure can be written as:(7) Inanotube(q)=ϕ·P·Vtot·Δρ^2·P(q)L·A(q)cs2·DW(q) where ϕ is the volume fraction of the peptide, P is the aggregation number given by P π(Ro2−Ri2)L/Vp where Vp is the volume of a peptide chain, Ro is the outer radius and Ri is the inner radius of the tubes, and L is the length. A(q)cs2 is given by:(8) A(q)cs2=Ro2A(q,Rc)−Rin2A(q,Ri)/(Ro2−Ri2) where A(q,x)=2J1(q·x)/(q·x) and J1(x) is the first order Bessel function.
The longitudinal form factor P(q)L is given by:(9) P(q)L=2 Si(QL)/QL −4 sin(sin^2(QL/2)/(QL)^2 where L is the length of the nanotubes and Si(x) is the Sine-function.
In addition, we introduced a slight distribution in the inner radius for possible shape fluctuations, and a Debye Waller factor, DW(q) = exp(−q^2 σ^2), describing possible surface roughness of the inner and outer wall.

For the next data set, the system named is S. aureus 29213. The data set can be described thus: Time-kill kinetics, S. aureus. To be noted: for reduction in viable cells: 5 × MIC, exponentially growing cells 1 × 10^8, S. aureus 29213. Type of data set: cell-based, Staphylococcus aureus. How it is done: as §4
The conditions of data set [4]: cited from earlier work.
From the text: as §3

The next data set concerns A. baumannii 19606. The data set can be described thus: Time-kill kinetics, A. baumannii. Type of data set: cell-based, Acinetobacter baumannii. To be noted: 5 × MIC, exponentially growing cells 1 × 10^8, A. baumannii 19606. How it is done:
as §4

For a further data set, the system named is E. coli 25922. The data set is described as follows: Time-kill kinetics, E. coli. Type of data set: cell-based, Escherichia coli. Conditions: 5 × MIC, exponentially growing cells 1 × 10^8, E. coli 25922. How it is done: as §4
The nature of data set [5]: Lipid-peptide interaction by synchrotron SAXS. To be noted: SAXS fit parameter, fit error < 5%. From the text:
For preparation of unilamellar lipid vesicles, synthetic DMPC (1,2-dimyristoyl-sn-glycero-3-phosphocholine), DMPG (1,2-dimyristoyl-sn-glycero-3-phospho-(10-rac-glycerol)), and DMPE-PEG (1,2-dimyristoyl-sn-glycero-3-phosphoethanolamine-N-[methoxy(polyethylene glycol)-2000]) (from Avanti Polar Lipids) were used in the molar ratio 9:7.5:2.5. The lipids were first dissolved in a 1:3 methanol:chloroform solution, and then the organic solvents were removed completely under vacuum using a Heidolph rotary evaporator with a Vacuubrand vacuum pump. The resulting lipid film was hydrated with 50 mM Tris buffer, pH 7.4, for at least one hour at 35 °C. After sonication for 10 min, the lipid dispersions were extruded through a 100 nm pore diameter polycarbonate filter (21 times) using an Avanti mini-extruder fitted with two 1 mL airtight syringes. Immediately before the SAXS experiment, a peptide solution with the adequate concentration for the target lipid:peptide ratio was mixed 1:1 with the lipid solution (1:1) using a micropipette.
SAXS experiments of the peptide-lipid mixes were performed at the automated BM29 bioSAXS beamline at the European Synchrotron Radiation Facility (ESRF) in Grenoble, France. The data was obtained using an energy of 12.5 keV and a detector distance of 2.87 m, covering a q range of about 0.0047 Å^−1 to 0.5 Å^−1. The data set was calibrated to an absolute intensity scale using water as a primary standard. 40 µL samples were run through a capillary using the flow mode of the automated sample changer. SAXS data was collected in ten successive frames of 0.5 s each to monitor radiation damage and the data reduction was done using the standard tool at BM29 [37].
The SAXS results of the lipid-peptide mixes were analysed using the theoretical model described in detail in [29]. In short, the model provides a detailed description of the membrane by dividing into probability functions for each component (lipid sub-units/peptide) across the bilayer.

Setting [6] is: fraction peptide 1:10 (peptide 5: joint SAXS/SANS fit).
The mark [7] stands for this setting: SAXS nanotube model fit, 50 mM Tris pH 7.4, 2.5–10 mg/mL.

Square brackets hold non-standard residues; d marks the D form. Peptide text beside a SMILES is read from it. d1Nal = N[C@H](Cc1cccc2ccccc12)C(=O)O; dNle = CCCC[C@@H](N)C(=O)O

Take `CCCC[C@@H](NC(=O)[C@@H](CCCCN)NC(=O)[C@@H](Cc1cccc2ccccc12)NC(=O)[C@@H](CCCCN)NC(=O)[C@H](N)Cc1ccccc1)C(N)=O` [Compound 29, fk(1-nal)k(nle)-NH2] (HELM PEPTIDE1{[dF].[dK].[O=C([C@@H](Cc1cccc2ccccc12)N[*:1])[*:2]].[dK].[CCCC[C@@H](N[*:1])C(=O)[*:2]].[am]}$$$$V2.0; N-terminus assumed): the “Minimum Inhibitory Concentration P.A.” value in [1] stood at 128 µg/mL. In addition, in the data set on E. coli (ATCC 25922), the “Minimum Inhibitory Concentration E.C.” value was over 128 µg/mL. Also, the “Minimum Inhibitory Concentration A.B.” value in data set [2] is listed as over 128 µg/mL. The “%H (% Hemolysis at 150 µM)” value in the data set with human red blood cells (150 µM in PBS, 0.5% v/v fresh human RBC, 1 h at 37 °C, absorbance 414 nm, normalised to PBS (0%) and melittin (100%)) is 12%. For the same molecule, the “Minimum Inhibitory Concentration S.A.” value in the data set with S. aureus (ATCC 29213) is recorded as over 128 µg/mL.

As to “KLKLLLLLKLK-NH2 [sapesin B analog (L-form), literature peptide of Manabe et al]”, in the data set on S. aureus, the “antimicrobial activity against S. aureus” value is 16 µg/mL.

For the molecule `CCCC[C@@H](NC(=O)[C@@H](CCCCN)NC(=O)[C@@H](Cc1cccc2ccccc12)NC(=O)[C@@H](CCCCN)NC(=O)[C@@H](Cc1ccccc1)NC(=O)[C@@H](Cc1cccc2ccccc12)NC(=O)[C@@H](CCCCN)NC(=O)[C@H](N)CCCCN)C(N)=O` [Compound D2D, kk(1-nal)fk(1-nal)k(nle)-NH2] (H-[dK][dK][d1Nal][dF][dK][d1Nal][dK][dNle]-NH2), the “killing of viable cells” value with P. aeruginosa 27853 is 1 log. The “nanostructure in solution (self-assembly, SAXS model)” value in data set [3] is “random unstructured polymer-like chains”. The “reduction in viable cells” value in the data set with S. aureus 29213 turned out to be 5 log. For the same molecule, the “activity relative to its L-enantiomer (more active)” value in data set [4] was “approximately four-fold”. Also, the “reduction in number of viable cells” value in the data set with A. baumannii 19606 and in the data set with E. coli 25922 was 4–5 logs in each case. Moreover, in the data set on human red blood cells (red cells of human, 1 h, 150), the “%H (% Hemolysis at 150 µM)” value stood at 23%. Besides, the ffree peptide in data set [5] (fraction peptide 1:5) is reported as 0.7; in data set [5] (setting [6]) it was 0.51; in data set [5] (fraction peptide 1:20), 0.5.

With `CCCC[C@@H](NC(=O)[C@@H](CCCCN)NC(=O)[C@@H](Cc1cccc2ccccc12)NC(=O)[C@@H](C)NC(=O)[C@@H](Cc1ccccc1)NC(=O)[C@@H](Cc1cccc2ccccc12)NC(=O)[C@@H](CCCCN)NC(=O)[C@H](N)CCCCN)C(N)=O` [Compound 5, kk(1-nal)fa(1-nal)k(nle)-NH2] (H-[dK][dK][d1Nal][dF][dA][d1Nal][dK][dNle]-NH2), the “outer radius of hollow nano-tubes” value in [3] (setting [7]) is on record as 33 Å. For the same molecule, in data set [3] (setting [7]), the “shell thickness of hollow nano-tubes” value is 4 Å. In data set [3], the “nanostructure in solution (self-assembly, SAXS model)” value was “hollow nano-tubes”. Moreover, the “reduction in viable cells” value with S. aureus 29213 was determined as 5 log. The “reduction in CFU/mL” value in the data set on S. aureus 29213 (S. aureus, concentration not stated (conclusions)) is over 3 log. The “reduction in number of viable cells” value in the data set on A. baumannii 19606 and with E. coli 25922 was 4–5 logs in each case. Further, in the data set on human red blood cells (red cells of human, 1 h, 150), the “%H (% Hemolysis at 150 µM)” value is 47%. Besides, the ffree peptide amounted to 0.4 in data set [5] (fraction peptide 1:5), 0.5 in data set [5] (setting [6]) and 0.5 in data set [5] (fraction peptide 1:20).

Source of the values: paper PMC6943423, “Structure-Activity Study of an All-D Antimicrobial Octapeptide D2D” (Molecules, 2019).
